ChEMBL document CHEMBL1146607, “Synthesis and antifungal activity of 2,5-disubstituted-6-arylamino-4,7-benzimidazolediones” (2003)
In brackets after ≈: the same amount, converted by molar mass.

Tests used:
Assay type in all cases: functional
Candida albicans = assay: In vitro antifungal activity against Candida albicans ATCC 10231 was measured
Candida tropicalis = assay: In vitro antifungal activity against Candida tropicalis ATCC 28775 was measured
Pichia kudriavzevii = assay: In vitro antifungal activity against Candida krusei ATCC 749 was measured
Aspergillus niger = assay: In vitro antifungal activity against Aspergillus niger KCTC 1231 was measured

SMILES | MIC (Candida albicans) [µg/mL] | MIC (Candida tropicalis) [µg/mL] | MIC (Pichia kudriavzevii) [µg/mL] | MIC (Aspergillus niger) [µg/mL]
Nc1nc(=O)[nH]cc1F [FLUCYTOSINE] | 3.2 (≈ 24.8 µM) | 6.3 (≈ 48.8 µM) | 6.3 (≈ 48.8 µM) | 6.3 (≈ 48.8 µM)
O=C1C(Cl)=C(Nc2ccc(F)cc2)C(=O)c2[nH]c(-c3cccnc3)nc21 | > 100 | 12.5 (≈ 33.9 µM) | > 100 | 100 (≈ 271 µM)
O=C1C(Cl)=C(Nc2ccc(Cl)cc2)C(=O)c2[nH]c(-c3ccccn3)nc21 | 6.3 (≈ 16.4 µM) | 3.2 (≈ 8.31 µM) | 6.3 (≈ 16.4 µM) | 6.3 (≈ 16.4 µM)
O=C1C(Cl)=C(Nc2ccc(Br)cc2)C(=O)c2[nH]c(-c3ccncc3)nc21 | > 100 | 12.5 (≈ 29.1 µM) | > 100 | 100 (≈ 233 µM)
O=C1C(Cl)=C(Cl)C(=O)c2[nH]c(-c3ccccn3)nc21 | > 100 | 25 (≈ 85 µM) | > 100 | 100 (≈ 340 µM)
O=C1C(Cl)=C(Nc2ccc(F)cc2)C(=O)c2[nH]c(-c3ccncc3)nc21 | > 100 | 6.3 (≈ 17.1 µM) | > 100 | 100 (≈ 271 µM)
O=C1C=CC(=O)c2[nH]c(-c3ccccn3)nc21 | > 100 | 100 (≈ 444 µM) | > 100 | 100 (≈ 444 µM)
O=C1C(Cl)=C(Nc2ccc(Br)cc2)C(=O)c2[nH]c(-c3cccnc3)nc21 | > 100 | 50 (≈ 116 µM) | > 100 | 100 (≈ 233 µM)
O=C1C(Cl)=C(Nc2ccc(Cl)cc2)C(=O)c2[nH]c(-c3cccnc3)nc21 | > 100 | 25 (≈ 64.9 µM) | > 100 | 100 (≈ 260 µM)
O=C1C(Cl)=C(Nc2ccc(F)cc2)C(=O)c2[nH]c(-c3ccccn3)nc21 | 12.5 (≈ 33.9 µM) | 3.2 (≈ 8.68 µM) | 6.3 (≈ 17.1 µM) | 25 (≈ 67.8 µM)
COc1ccc(NC2=C(Cl)C(=O)c3nc(-c4ccncc4)[nH]c3C2=O)cc1 | > 100 | 25 (≈ 65.7 µM) | > 100 | 100 (≈ 263 µM)
O=C1C(Cl)=C(Nc2ccc(Br)cc2)C(=O)c2[nH]c(-c3ccccn3)nc21 | 3.2 (≈ 7.45 µM) | 1.6 (≈ 3.72 µM) | 6.3 (≈ 14.7 µM) | 6.3 (≈ 14.7 µM)
COc1ccc(NC2=C(Cl)C(=O)c3nc(-c4cccnc4)[nH]c3C2=O)cc1 | > 100 | 50 (≈ 131 µM) | > 100 | 100 (≈ 263 µM)
O=C1C(Cl)=C(Nc2ccc(I)cc2)C(=O)c2[nH]c(-c3ccccn3)nc21 | 50 (≈ 105 µM) | 3.2 (≈ 6.71 µM) | 100 (≈ 210 µM) | > 100
O=C1C(Cl)=C(Nc2ccc(Cl)cc2)C(=O)c2[nH]c(-c3ccncc3)nc21 | > 100 | 3.2 (≈ 8.31 µM) | > 100 | 100 (≈ 260 µM)

Now from value to compound:

MIC (Candida albicans) [µg/mL] | MIC (Candida tropicalis) [µg/mL] | MIC (Pichia kudriavzevii) [µg/mL] | MIC (Aspergillus niger) [µg/mL] | SMILES
12.5 (≈ 32.8 µM) | 1.6 (≈ 4.2 µM) | 12.5 (≈ 32.8 µM) | 25 (≈ 65.7 µM) | COc1ccc(NC2=C(Cl)C(=O)c3nc(-c4ccccn4)[nH]c3C2=O)cc1
12.5 (≈ 31.7 µM) | 3.2 (≈ 8.11 µM) | 12.5 (≈ 31.7 µM) | 25 (≈ 63.3 µM) | CCOc1ccc(NC2=C(Cl)C(=O)c3[nH]c(-c4ccccn4)nc3C2=O)cc1
50 (≈ 127 µM) | 0.8 (≈ 2.02 µM) | 1.6 (≈ 4.05 µM) | 1.6 (≈ 4.05 µM) | O=C1C=C(Nc2ccc(Br)cc2)C(=O)c2[nH]c(-c3ccccn3)nc21
12.5 (≈ 34.3 µM) | 1.6 (≈ 4.39 µM) | 3.2 (≈ 8.77 µM) | 25 (≈ 68.5 µM) | Cc1ccc(NC2=C(Cl)C(=O)c3nc(-c4ccccn4)[nH]c3C2=O)cc1
50 (≈ 113 µM) | 0.8 (≈ 1.81 µM) | 1.6 (≈ 3.62 µM) | 100 (≈ 226 µM) | O=C1C=C(Nc2ccc(I)cc2)C(=O)c2[nH]c(-c3ccccn3)nc21
50 (≈ 143 µM) | 0.8 (≈ 2.28 µM) | 1.6 (≈ 4.56 µM) | 3.2 (≈ 9.12 µM) | O=C1C=C(Nc2ccc(Cl)cc2)C(=O)c2[nH]c(-c3ccccn3)nc21
50 (≈ 139 µM) | 0.8 (≈ 2.22 µM) | 1.6 (≈ 4.44 µM) | 50 (≈ 139 µM) | CCOc1ccc(NC2=CC(=O)c3nc(-c4ccccn4)[nH]c3C2=O)cc1
3.2 (≈ 9.69 µM) | 0.8 (≈ 2.42 µM) | 0.4 (≈ 1.21 µM) | 6.3 (≈ 19.1 µM) | Cc1ccc(NC2=CC(=O)c3[nH]c(-c4ccccn4)nc3C2=O)cc1
100 (≈ 299 µM) | 1.6 (≈ 4.79 µM) | 50 (≈ 150 µM) | 100 (≈ 299 µM) | O=C1C(Nc2ccc(F)cc2)=CC(=O)c2[nH]c(-c3ccccn3)nc21
6.3 (≈ 18.2 µM) | 0.8 (≈ 2.31 µM) | 1.6 (≈ 4.62 µM) | 50 (≈ 144 µM) | COc1ccc(NC2=CC(=O)c3[nH]c(-c4ccccn4)nc3C2=O)cc1
